Source: publication PMC5618426, “APETx4, a Novel Sea Anemone Toxin and a Modulator of the Cancer-Relevant Potassium Channel KV10.1” (Marine Drugs, 2017)
Entries after “also recorded” stand apart in the source; their conditions may differ. Positions of bridges follow the written chain, without caps; N, C: chain ends. No end group written: not given here.

Columns and labels:
hKV11.1 (hERG) = type: cell-based, human
Procedure: For the expression of the ion channels (rNaV1.4, hNaV1.5, mNaV1.6, hKV1.1, rKV1.3, hKV1.4, hKV1.5, hKV2.1, hKV10.1a and hKV11.1,) in Xenopus oocytes, the plasmids were linearized and subsequently transcribed using the T7 or SP6 mMESSAGE-mMACHINE transcription kit (Ambion®, Carlsbad, CA, USA).
Stage V-VI Xenopus laevis oocytes were isolated by partial ovariectomy. The animals were anesthetized by a 15 min submersion in 0.1% tricaine methane sulfonate (pH 7.0). Isolated oocytes were defolliculated with 2 mg/mL collagenase.
Defolliculated oocytes were injected with 50 nL of cRNA at a concentration of 1 ng/nL using a micro-injector (Drummond Scientific®, Broomall, PA, USA). The oocytes were incubated in a solution containing (in mM): NaCl, 96; KCl, 2; CaCl2, 1.8; MgCl2, 2 and HEPES, 5 (pH 7.4), supplemented with 50 mg/L gentamycin sulfate.
Two-electrode voltage-clamp recordings were performed at room temperature (18–22 °C) using an Geneclamp 500B Voltage and Patch Clamp Amplifier (Axon Instruments, Union City, CA, USA, controlled by a Axon Digidata 1550 Low-Noise Data Acquisition System (Axon Instruments). Whole cell currents from oocytes were recorded 1–4 days after injection. The normal bath solution (ND96) composition was (in mM): NaCl, 96; KCl, 2; CaCl2, 1.8; MgCl2, 2 and HEPES, 5 (pH 7.4). The high potassium solution (HK) composition was in mM): NaCl, 2; KCl, 96; CaCl2, 1.8; MgCl2, 2 and HEPES, 5 (pH 7.4). Voltage and current electrodes were filled with 3 M KCl. Resistances of both electrodes were kept between 0.5 and 1.5 MΩ. The elicited KV1.x end KV2.1 currents were filtered at 500 Hz and sampled at 2 kHz, KV10.1 currents were filtered at 1 kHz and sampled at 2 kHz, hERG currents were filtered at 1 kHz and sampled at 10 kHz and the sodium currents were filtered at 2 kHz and sampled at 20 kHz using a four-pole low-pass Bessel filter. Leak subtraction was performed using a -P/4 protocol.
KV10.1 currents were evoked by 2 s depolarizing pulses to 0 mV from a holding potential of −90 mV. KV11.1 (hERG) peak and tail currents were generated by a 2.5 s prepulse from −90 mV to 40 mV followed by a 2.5 s pulse to −120 mV. […]
The peak and tail current of hERG were measured at different voltages by 1500 ms activating pulses from −60 mV to 55 mV in 5 mV steps from the holding potential of −90 mV, followed by a 750 ms step to −120 mV.
All electrophysiological data are presented as means ± S.E.M of n ≥ 3 independent experiments unless otherwise indicated. All data were acquired using pClamp Clampex 10.4 Molecular Devices, Downingtown, PA, USA) and analyzed using pClamp Clampfit 10.4 (Molecular Devices) and OriginPro 8 (Originlab, Northampton, MA, USA) or GraphPad Prism 6 software (GraphPad Software, Inc., San Diego, CA, USA). […]

MDA-MB-435S = type: cell-based, human
From the text: (§1) The proapoptotic activity of APETx4 was visualized and quantified by the addition of the IncuCyte Caspase-3/7 Reagent. This reagent is an inert and non-fluorescent substrate, which is cleaved by activated caspase-3/7 during early apoptosis. The cleavage of the reagent releases a DNA-binding green fluorescent dye. […] In Figure 7 an overview is given for the caspase assays of all the tested cell lines.
(§2) Figure 7 Investigation of the proapoptotic effect of APETx4 on various cell lines using a Caspase-3/7 Reagent. The amount of cells in early apoptosis was plotted as Green Object Count (1/mm²) versus time (hours). The data points represented as red triangles were obtained from apoptosis experiments with cells incubated without APETx4, the green squares represent experiments with 20 µM APETx4 and the blue circles were obtained from experiments with 50 µM APETx4.
(§3) Cell lines SH-SY5Y (ACC 209), LNCaP (ACC 256) and NIH-3T3 (ACC 59) were purchased from DSMZ (Germany). MDA-MB-435S (HTB 129) and hTERT RPE-1 (CRL 4000) were obtained from ATCC (USA). Cell lines were cultured in their recommended media supplemented with 10% or 15% FCS (PAA laboratories, Cölbe, Germany) at 37 °C in humidified 5% CO2 atmosphere. All media were purchased from ThermoFisher Scientific (Waltham, MA, USA).
(§4) Cell proliferation, cytotoxicity and apoptosis were assessed in a 96-well microtiter plate by live-cell imaging using an IncuCyte Zoom System (Essen BioScience, Welwyn Garden City, UK). Cell proliferation was monitored in terms of cell confluency (%). Cell cytotoxicity was assessed by the CellTox Green Dye assay (Promega, Madison, WI, USA). The IncuCyte Caspase-3/7 apoptosis assay (Essen BioScience, UK) was used to evaluate the effect of APETx4 on the apoptotic pathway.
(§5) Live-cell imaging data were collected from the IncuCyte Zoom software and analyzed using GraphPad Prism 6 software. Proliferation was measured as Phase Object Confluence (%), cytotoxicity and apoptosis were measured as Green Object Count (1/mm²). Data points were collected every hour. In order to improve the clarity of the graphs, only the data points for every 5 h are shown. All data are represented as mean ± S.E.M of n = 4 different wells.

hTERT RPE-1 = type: cell-based, human
From the text: as §1, §2, §3, §4, §5

SH-SY5Y = type: cell-based, human
From the text: as §1, §2, §3, §4, §5

LNCaP = type: cell-based, human
From the text: as §1, §2, §3, §4, §5

[1] = 50 µM APETx4, 0 h, 24 h and 48 h
[2] = green object count (1/mm²) versus incubation time
[3] = 50 µM APETx4, immediately after toxin addition

GTTCYCGKTIGIYWFGKYSCPTNRGYTGSCPYFLGICCYPVD (disulfide 4-37, 6-30, 20-38) [APETx4]
cytotoxic effect in Xenopus oocytes (Xenopus oocytes): cytotoxic effect is not observed | hERG tail current at positive activation steps (≥0 mV) (hKV11.1 (hERG); 10 µM APETx4): tail current increased | highest inhibition of hERG inward tail current (hKV11.1 (hERG); 10 µM APETx4, activating step to −20 mV): 21 ± 5% | shift of hERG activation curve towards more positive potentials (hKV11.1 (hERG); 10 µM APETx4, inward tail currents, Boltzmann fit, n = 3, p < 0.05): 7.7 ± 0.4 mV | selectivity KV10.1 versus hERG (hKV11.1 (hERG); low micromolar concentrations): discriminates between KV10.1 and hERG; also recorded: makes a clear distinction between KV10.1 and hERG | viability in cell images (MDA-MB-435S; [1]): immediate effects were not clearly observed | time course of green fluorescent cells (early apoptosis) (MDA-MB-435S; [2]): gradual increase in green fluorescent cells | viability in cell images (hTERT RPE-1; [3]): became less viable | response time in caspase assay (hTERT RPE-1; very rapid response): < 60 min | viability in cell images (SH-SY5Y; [1]): immediate effects were not clearly observed | time course of green fluorescent cells (early apoptosis) (SH-SY5Y; [2]): gradual increase in green fluorescent cells | viability in cell images (LNCaP; [3]): became less viable | response time in caspase assay (LNCaP; very rapid response): < 60 min
